The values that follow are results of earlier work, collected in patent publication US20080280861A1, “Method of Female Contraception and a Kit For Use Therein” (PANTARHEI BIOSCIENCE B.V., priority 2004, published 2008).

The conditions of the data set: relative to levonorgestrel dosage; known in the art.
Consider `C#C[C@]1(OC(C)=O)CC[C@H]2[C@@H]3CCC4=CC(=NO)CC[C@@H]4[C@H]3CC[C@@]21CC` (mixture of isomers) [Norgestimate], for which the Conversion factor is listed as 1.7. As to `C[C@]12CCC(=O)C=C1[C@@H]1C[C@@H]1[C@H]1[C@@H]3[C@@H]4C[C@@H]4[C@@]4(CCC(=O)O4)[C@@]3(C)CC[C@@H]12` [Drospirenone], the Conversion factor is on record as 20.

`CC(=O)[C@H]1CC[C@H]2[C@@H]3C=CC4=CC(=O)CC[C@@]4(C)[C@@H]3CC[C@]12C` [Dydrogesterone]: the Conversion factor was 133. Regarding `C#C[C@]1(O)CC[C@H]2[C@@H]3CCC4=CC(=O)CC[C@@H]4[C@H]3CC[C@@]21C` [Norethisterone], the Conversion factor was 7.
